The subject of one data set is HIV-1. The note with it: cited from earlier work.
In the next data set the test system is vaccinia virus. The settings on record: cited from earlier work.
The test system of a further data set is WEEV (strain Cova 746). The format is cell-based, Western equine encephalitis virus.
For a further data set, the system named is WNV VLP. It is filed as cell-based, West Nile virus. The note with it: 1.5 μM.
A further data set has as its system DENV-1 VLP. The format is cell-based, dengue virus (DENV-1). The settings on record: 1.5 μM.
A further data set is described as follows: in vitro. The note with it: African green monkey.
A further data set deals with poliovirus. The settings on record: cited from earlier work.
A further data set concerns SARS-CoV. The note with it: cited from earlier work.
Data set [1] concerns VSV (New Jersey serotype). It is filed as cell-based, vesicular stomatitis virus.
The subject of data set [2] is herpes simplex virus (type 1). The settings on record: cited from earlier work.

A word on the viability: it is the share of living cells, or the viability signal relative to a control.

For the compound `O[C@H]1[C@H]2c3cc4c(cc3CN3CCC(=C[C@@H]1O)[C@H]23)OCO4` [Lycorine], the antiviral activity result in the data set with HIV-1 is on record as “does not inhibit”; in the data set on vaccinia virus, “inhibit”; with poliovirus, “inhibit”; with SARS-CoV, “inhibit”; in data set [2], “inhibit”. Moreover, the “suppression of viral titer” value (with WEEV (strain Cova 746); in data set [1]) was “suppressed titers of neither WEEV nor VSV” in each case. The entries for the “reduction of luciferase signals” value with WNV VLP and in the data set on DENV-1 VLP were 1400 fold and 1200 fold, respectively. Further, the viability at 1.5 µM in “in vitro” is greater than 90%. The “suppression of viral translation” value in the data set on poliovirus was roughly 90%.
